Values after ≈ are worked out from the molar mass of the structure shown. Residues, ends and D or L forms follow the SMILES beside them.
Key:
S. cohnii c.i. = assay: MIC/MBC broth microdilution, S. cohnii; format: cell-based, Staphylococcus cohnii
Summary of the method: (§1)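 BHI broth microdilution (NCCLS); ~10^5 CFU/mL; 37 °C, 18 h. MIC = lowest conc., no visible growth (≥90% vs untreated). MBC = ≤3 colonies, ≥99.9% kill. Water/DMSO/EtOH solvent controls; technical triplicate ×3 biological repeats.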

P. aeruginosa ATCC 10145 = assay: MIC/MBC broth microdilution, P. aeruginosa; format: cell-based
Summary of the method: as §1

S. pyogenes ATCC 19615 = assay: MIC/MBC broth microdilution, S. pyogenes; format: cell-based, Streptococcus pyogenes; details: S. pyogenes
Summary of the method: as §1

[1] = Hydrophobicity by reverse-phase chromatography; format: physicochemical; details: acetonitrile content in the mobile phase at the retention time
Summary of the method: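 Hydrophobicity value is the acetonitrile content (%) of the eluent when the compound elutes from a reverse-phase column.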

[2] = tested on: immortalized human HaCaT keratinocytes; assay: XTT cell proliferation assay, keratinocytes; format: cell-based; details: XTT, 48 and 72 h, 0.01–150 μg/mL
Summary of the method: (§2)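 Proliferation was read as XTT absorbance at 490 nm after 4 h of reagent incubation, following 48 or 72 h of peptide exposure in serum-free HG-DMEM (37 °C, 5% CO2). The 72 h arm included a half-medium change with second peptide dose at 48 h. Significance by Mann–Whitney U, p ≤ 0.05.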

E. coli ATCC 25922 = assay: MIC/MBC broth microdilution, E. coli; format: cell-based, Escherichia coli
Summary of the method: as §1

[3] = tested on: human dermal fibroblast cell line (46BR.1N); assay: XTT cell proliferation assay, fibroblasts; format: cell-based; details: XTT, 48 and 72 h, 0.01–150 μg/mL
Summary of the method: as §2

E. faecalis c.i. = assay: MIC/MBC broth microdilution, E. faecalis; format: cell-based, Enterococcus faecalis
Summary of the method: as §1

S. aureus ATCC 43300 = assay: MIC/MBC broth microdilution, S. aureus; format: cell-based, Staphylococcus aureus; details: S. aureus
[4] = Stability / presence in human plasma; format: in vitro ADME; details: 24 h incubation at 37 °C
Protocol: Blood was drawn from healthy volunteers, and lithium/heparin holding tubes were used to remove the clot by centrifugation. The plasma was aliquoted in sterile conditions and incubated with the desired compounds for 24 h at 37 °C. The samples were prepared under sterile conditions following the previously described protocol. The samples were collected at six time points (0, 1, 2, 3, 6, and 24 h) for determining stability in water solutions, and time points of 0, 10, 20, 30, 40, 50, and 60 min, as well as of 2, 3, 6, and 24 h, for determining stability in human plasma. The analysis was performed by HPLC using a Kromasil C8 column (5 μm, 90 Å, 1.0 mm × 250 mm) monitored by a PDA or ELDS-LT II detector. For quantification, peak areas were compared to a calibration curve calculated by Shimadzu LCsolution Software (Kyoto, Japan). Graphs were prepared in GraphPad Prism (Boston, USA).

[5] = tested on: K. pneumoniae ATCC 700603; assay: MIC/MBC broth microdilution, K. pneumoniae; format: cell-based
Summary of the method: as §1

## CC(C)[C@H](NC(=O)[C@H](CCCNC(=N)N)NC(=O)[C@H](CCCNC(=N)N)NC(=O)OCc1ccccc1)C(=O)NCCc1ccccc1 [Compound A-221] (HELM PEPTIDE1{[O=C(OCc1ccccc1)[*:2]].R.R.V.[c1ccc(CCN[*:1])cc1]}$$$$V2.0)
S. cohnii c.i.; H2O
  MBC: 256 µg/mL (≈ 384 µM)
S. cohnii c.i.; water additive DMSO
  MBC: 256 µg/mL (≈ 384 µM)
S. cohnii c.i.; water additive EtOH
  MBC: 256 µg/mL (≈ 384 µM)
P. aeruginosa ATCC 10145; H2O
  MBC: 256 µg/mL (≈ 384 µM)
P. aeruginosa ATCC 10145; water additive DMSO
  MIC: 32 µg/mL (≈ 48 µM)
S. pyogenes ATCC 19615; H2O
  MBC: 256 µg/mL (≈ 384 µM)
S. pyogenes ATCC 19615; water additive DMSO
  MBC: > 512 µg/mL
  MIC: 512 µg/mL (≈ 768 µM)
S. pyogenes ATCC 19615; water additive EtOH
  MBC: 256 µg/mL (≈ 384 µM)
[1]
  % AcCN (acetonitrile required for elution from the column): 43.9%
[2]
  effect on proliferation, in words: pro-proliferating effect at lower concentrations followed by an antiproliferative effect at higher concentrations
E. coli ATCC 25922; H2O
  MIC: > 512 µg/mL
E. coli ATCC 25922; water additive DMSO
  MIC: > 512 µg/mL
E. coli ATCC 25922; water additive EtOH
  MIC: > 512 µg/mL
[3]
  effect on proliferation, in words: pro-proliferating effect at lower concentrations followed by an antiproliferative effect at higher concentrations
E. faecalis c.i.; H2O
  MIC: > 512 µg/mL
E. faecalis c.i.; water additive DMSO
  MIC: > 512 µg/mL
E. faecalis c.i.; water additive EtOH
  MIC: > 512 µg/mL
S. aureus ATCC 43300; H2O
  MBC: 512 µg/mL (≈ 768 µM)
  MIC: 512 µg/mL (≈ 768 µM)
S. aureus ATCC 43300; water additive DMSO
  MIC: > 512 µg/mL
S. aureus ATCC 43300; water additive EtOH
  MBC: 512 µg/mL (≈ 768 µM)
  MIC: 256 µg/mL (≈ 384 µM)
[4]
  present in human plasma: 85–90%
[5]; H2O
  MIC: > 512 µg/mL
[5]; water additive DMSO
  MIC: > 512 µg/mL
[5]; water additive EtOH
  MIC: > 512 µg/mL
